Reference: publication doi:10.1101/2020.07.01.182642v1 (biorxiv, 2020)

Legend:
Conditions in all cases: binder
CSNK1G1 = CSNK1G1 (Homo sapiens, UniProt Q9HCP0)
PAK7 = PAK7 (Homo sapiens, UniProt Q9P286)
PHKG2 = target: T1, PHKG2 (Homo sapiens, UniProt P15735)
T1 sequence (P15735 1-406): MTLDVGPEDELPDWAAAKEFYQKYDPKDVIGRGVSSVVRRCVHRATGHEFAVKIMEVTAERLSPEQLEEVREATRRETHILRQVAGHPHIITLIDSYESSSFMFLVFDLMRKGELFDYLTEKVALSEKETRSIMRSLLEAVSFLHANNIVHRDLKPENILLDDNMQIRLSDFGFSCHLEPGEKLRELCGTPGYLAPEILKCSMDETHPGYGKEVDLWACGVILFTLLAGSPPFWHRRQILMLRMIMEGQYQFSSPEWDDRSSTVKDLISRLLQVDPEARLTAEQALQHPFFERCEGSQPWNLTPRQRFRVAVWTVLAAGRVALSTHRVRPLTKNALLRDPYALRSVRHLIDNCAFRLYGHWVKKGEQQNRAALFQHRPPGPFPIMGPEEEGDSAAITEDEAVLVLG

AAK1 = AAK1 (Homo sapiens, UniProt Q2M2I8)
Sequence of AAK1 (Q2M2I8 whole entry): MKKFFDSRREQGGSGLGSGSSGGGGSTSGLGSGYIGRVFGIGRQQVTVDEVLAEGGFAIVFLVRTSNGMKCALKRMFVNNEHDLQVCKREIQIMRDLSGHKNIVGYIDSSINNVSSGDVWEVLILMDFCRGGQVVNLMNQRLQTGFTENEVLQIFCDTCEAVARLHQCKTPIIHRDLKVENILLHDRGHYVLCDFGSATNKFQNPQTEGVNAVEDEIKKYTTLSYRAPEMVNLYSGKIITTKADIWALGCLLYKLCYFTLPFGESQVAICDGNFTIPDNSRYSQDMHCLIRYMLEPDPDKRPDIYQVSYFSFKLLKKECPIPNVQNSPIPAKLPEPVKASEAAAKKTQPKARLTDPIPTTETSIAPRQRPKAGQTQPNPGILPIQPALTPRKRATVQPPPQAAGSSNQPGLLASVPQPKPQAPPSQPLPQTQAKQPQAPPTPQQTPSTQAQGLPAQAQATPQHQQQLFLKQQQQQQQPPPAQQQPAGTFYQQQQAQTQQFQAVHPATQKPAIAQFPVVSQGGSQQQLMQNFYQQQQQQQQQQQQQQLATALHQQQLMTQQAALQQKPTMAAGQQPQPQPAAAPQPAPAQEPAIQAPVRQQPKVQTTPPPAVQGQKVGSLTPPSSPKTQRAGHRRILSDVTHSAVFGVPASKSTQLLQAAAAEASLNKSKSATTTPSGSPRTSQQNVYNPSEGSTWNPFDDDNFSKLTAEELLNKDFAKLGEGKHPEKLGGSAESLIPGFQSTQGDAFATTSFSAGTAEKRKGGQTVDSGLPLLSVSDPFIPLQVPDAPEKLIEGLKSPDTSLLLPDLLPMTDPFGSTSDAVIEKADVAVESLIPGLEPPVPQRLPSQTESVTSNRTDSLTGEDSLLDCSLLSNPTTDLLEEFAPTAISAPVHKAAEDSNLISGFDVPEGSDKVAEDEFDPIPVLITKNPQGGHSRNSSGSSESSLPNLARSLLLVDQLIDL

PLK4 = target: T2, PLK4 (Homo sapiens, UniProt O00444)
T2 sequence (O00444 1-970): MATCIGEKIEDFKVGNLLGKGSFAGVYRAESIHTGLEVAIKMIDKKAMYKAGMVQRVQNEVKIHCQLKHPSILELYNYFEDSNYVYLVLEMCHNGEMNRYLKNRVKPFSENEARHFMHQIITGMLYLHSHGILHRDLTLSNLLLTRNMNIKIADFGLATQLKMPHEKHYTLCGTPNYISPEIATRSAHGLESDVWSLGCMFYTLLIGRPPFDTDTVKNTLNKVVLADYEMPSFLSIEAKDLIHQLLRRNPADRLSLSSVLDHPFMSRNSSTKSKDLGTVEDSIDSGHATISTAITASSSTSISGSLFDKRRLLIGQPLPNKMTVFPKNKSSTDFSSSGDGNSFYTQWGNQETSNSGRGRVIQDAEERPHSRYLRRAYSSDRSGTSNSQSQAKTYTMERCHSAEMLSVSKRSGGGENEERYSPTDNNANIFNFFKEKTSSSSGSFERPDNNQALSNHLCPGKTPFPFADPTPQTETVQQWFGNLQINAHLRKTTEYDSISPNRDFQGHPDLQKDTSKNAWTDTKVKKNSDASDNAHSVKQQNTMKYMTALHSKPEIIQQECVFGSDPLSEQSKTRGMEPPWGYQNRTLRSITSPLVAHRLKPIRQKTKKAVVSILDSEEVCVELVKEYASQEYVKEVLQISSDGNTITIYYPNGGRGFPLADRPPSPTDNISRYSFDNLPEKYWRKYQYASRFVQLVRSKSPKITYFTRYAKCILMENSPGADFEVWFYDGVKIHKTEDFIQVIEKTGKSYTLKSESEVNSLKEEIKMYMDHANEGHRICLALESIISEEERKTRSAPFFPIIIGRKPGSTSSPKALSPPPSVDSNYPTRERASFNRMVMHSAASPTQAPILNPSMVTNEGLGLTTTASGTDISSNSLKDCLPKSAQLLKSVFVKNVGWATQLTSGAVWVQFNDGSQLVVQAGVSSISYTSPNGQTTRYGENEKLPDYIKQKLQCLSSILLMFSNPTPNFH

TTK = target: T3, TTK (Homo sapiens, UniProt P33981)
T3 sequence (P33981 1-857): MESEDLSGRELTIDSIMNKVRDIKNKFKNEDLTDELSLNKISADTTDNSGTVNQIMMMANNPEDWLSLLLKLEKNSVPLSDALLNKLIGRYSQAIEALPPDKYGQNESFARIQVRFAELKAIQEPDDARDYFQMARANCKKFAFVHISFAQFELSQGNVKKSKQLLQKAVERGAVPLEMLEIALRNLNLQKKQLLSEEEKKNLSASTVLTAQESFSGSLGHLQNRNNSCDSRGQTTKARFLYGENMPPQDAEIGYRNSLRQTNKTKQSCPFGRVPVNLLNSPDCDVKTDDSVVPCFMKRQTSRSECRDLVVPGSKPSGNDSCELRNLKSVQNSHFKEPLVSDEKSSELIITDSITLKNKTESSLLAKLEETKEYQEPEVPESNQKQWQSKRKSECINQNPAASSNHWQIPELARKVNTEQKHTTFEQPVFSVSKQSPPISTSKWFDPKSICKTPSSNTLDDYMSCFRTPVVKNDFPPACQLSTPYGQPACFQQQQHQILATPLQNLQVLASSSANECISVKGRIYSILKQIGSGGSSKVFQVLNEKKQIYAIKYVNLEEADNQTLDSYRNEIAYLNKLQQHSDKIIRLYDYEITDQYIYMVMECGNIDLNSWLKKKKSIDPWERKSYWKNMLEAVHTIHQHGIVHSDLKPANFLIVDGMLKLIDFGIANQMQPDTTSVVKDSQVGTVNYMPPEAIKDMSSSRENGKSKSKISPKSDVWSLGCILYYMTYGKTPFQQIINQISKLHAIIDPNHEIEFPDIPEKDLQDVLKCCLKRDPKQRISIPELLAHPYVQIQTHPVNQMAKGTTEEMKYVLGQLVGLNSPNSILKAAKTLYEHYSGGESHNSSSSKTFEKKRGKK

STK39 = STK39 (Homo sapiens, UniProt Q9UEW8)
TNIK = TNIK (Homo sapiens, UniProt Q9UKE5)
Sequence of TNIK (Q9UKE5 whole entry): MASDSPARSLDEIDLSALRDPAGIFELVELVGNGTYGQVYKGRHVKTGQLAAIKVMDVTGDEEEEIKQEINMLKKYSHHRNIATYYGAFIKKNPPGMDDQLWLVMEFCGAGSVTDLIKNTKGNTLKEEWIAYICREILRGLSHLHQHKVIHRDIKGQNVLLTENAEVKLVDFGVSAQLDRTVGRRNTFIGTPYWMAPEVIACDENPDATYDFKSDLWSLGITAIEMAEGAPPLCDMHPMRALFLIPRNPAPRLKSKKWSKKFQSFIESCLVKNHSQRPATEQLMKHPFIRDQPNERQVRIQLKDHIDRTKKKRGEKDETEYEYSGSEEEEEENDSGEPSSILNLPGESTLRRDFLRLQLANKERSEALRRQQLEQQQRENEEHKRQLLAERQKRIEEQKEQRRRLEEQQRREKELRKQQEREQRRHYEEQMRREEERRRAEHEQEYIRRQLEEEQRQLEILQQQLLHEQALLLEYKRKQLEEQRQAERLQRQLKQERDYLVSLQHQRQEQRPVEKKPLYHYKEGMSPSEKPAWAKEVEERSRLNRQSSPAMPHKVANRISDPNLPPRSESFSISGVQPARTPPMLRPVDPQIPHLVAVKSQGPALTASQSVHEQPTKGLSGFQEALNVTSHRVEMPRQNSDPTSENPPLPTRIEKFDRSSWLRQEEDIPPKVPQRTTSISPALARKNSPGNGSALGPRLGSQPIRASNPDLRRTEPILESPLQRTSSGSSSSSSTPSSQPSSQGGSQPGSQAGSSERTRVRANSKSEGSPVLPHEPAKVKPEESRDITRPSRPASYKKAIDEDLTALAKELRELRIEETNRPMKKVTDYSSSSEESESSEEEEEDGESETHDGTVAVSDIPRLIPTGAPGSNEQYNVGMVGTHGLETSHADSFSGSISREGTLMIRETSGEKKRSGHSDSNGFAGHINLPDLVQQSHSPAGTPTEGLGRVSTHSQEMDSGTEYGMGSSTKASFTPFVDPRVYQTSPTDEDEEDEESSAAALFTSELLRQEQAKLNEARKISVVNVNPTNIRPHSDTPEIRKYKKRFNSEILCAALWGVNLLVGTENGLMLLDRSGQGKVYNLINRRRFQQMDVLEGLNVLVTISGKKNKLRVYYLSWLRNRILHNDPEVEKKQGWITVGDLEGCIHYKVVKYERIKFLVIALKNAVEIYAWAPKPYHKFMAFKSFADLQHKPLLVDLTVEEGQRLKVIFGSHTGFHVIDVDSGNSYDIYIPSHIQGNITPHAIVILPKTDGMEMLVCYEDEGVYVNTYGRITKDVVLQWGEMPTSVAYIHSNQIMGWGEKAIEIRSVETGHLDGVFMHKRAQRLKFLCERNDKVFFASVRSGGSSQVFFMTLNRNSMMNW

CDKL1 = CDKL1 (Homo sapiens, UniProt Q00532)
Sequence of CDKL1 (Q00532 whole entry): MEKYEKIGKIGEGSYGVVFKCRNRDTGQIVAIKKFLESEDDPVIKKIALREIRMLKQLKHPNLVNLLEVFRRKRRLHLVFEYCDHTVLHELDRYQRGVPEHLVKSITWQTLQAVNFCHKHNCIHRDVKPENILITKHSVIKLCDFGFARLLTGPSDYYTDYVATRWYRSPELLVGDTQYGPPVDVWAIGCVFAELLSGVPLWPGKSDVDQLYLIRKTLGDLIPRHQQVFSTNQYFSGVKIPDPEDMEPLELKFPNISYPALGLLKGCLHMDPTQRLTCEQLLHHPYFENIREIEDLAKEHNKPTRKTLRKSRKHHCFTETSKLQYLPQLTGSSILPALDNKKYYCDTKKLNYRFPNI

Sequence of CSNK1G1 (Q9HCP0 whole entry): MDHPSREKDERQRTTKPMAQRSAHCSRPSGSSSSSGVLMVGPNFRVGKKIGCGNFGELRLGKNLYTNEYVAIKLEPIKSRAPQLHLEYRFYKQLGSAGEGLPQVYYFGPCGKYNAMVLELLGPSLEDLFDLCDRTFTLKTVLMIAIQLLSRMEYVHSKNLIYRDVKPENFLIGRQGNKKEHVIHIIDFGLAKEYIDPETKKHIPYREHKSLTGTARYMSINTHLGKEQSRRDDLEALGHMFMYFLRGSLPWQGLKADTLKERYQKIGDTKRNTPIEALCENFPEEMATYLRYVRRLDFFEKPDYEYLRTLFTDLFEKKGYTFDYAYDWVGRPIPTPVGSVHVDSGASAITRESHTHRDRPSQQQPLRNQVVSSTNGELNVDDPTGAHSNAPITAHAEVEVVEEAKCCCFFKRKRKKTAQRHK
Sequence of PAK7 (Q9P286 whole entry): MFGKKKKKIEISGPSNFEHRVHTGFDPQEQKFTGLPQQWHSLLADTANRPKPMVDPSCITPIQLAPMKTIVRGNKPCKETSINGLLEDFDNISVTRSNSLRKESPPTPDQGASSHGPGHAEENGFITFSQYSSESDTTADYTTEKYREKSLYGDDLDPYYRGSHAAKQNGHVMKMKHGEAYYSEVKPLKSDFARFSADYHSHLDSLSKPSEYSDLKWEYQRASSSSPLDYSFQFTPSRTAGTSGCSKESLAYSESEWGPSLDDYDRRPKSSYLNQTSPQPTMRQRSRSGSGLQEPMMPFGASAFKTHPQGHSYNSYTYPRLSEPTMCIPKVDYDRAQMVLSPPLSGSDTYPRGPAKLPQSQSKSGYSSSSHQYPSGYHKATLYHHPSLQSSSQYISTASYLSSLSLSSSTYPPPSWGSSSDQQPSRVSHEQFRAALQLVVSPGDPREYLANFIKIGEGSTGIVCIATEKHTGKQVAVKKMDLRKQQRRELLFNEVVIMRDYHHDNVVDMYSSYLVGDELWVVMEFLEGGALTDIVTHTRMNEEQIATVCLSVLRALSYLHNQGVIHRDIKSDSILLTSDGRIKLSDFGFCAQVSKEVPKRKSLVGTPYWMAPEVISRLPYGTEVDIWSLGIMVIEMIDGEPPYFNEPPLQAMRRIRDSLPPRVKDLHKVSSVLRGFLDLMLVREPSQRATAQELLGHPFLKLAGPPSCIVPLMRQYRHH

For `CCN1/C(=C/C(C)=O)Sc2ccc(OC)cc21` [compound 2, TG003], the “ΔTm inhibitor 2” value (CSNK1G1) was 3.2 °C, the “ΔTm inhibitor 2” value (PAK7) was -0.1 °C and the “ΔTm inhibitor 2” value (PHKG2) was 0.2 °C. For the same compound, the “ΔTm inhibitor 2” value (AAK1) was 1.5 °C, the “ΔTm inhibitor 2” value (PLK4) was 0.2 °C and the “ΔTm inhibitor 2” value (TTK) was 0.5 °C. For the same compound, the “ΔTm inhibitor 2” value (STK39) was 0.5 °C, the “ΔTm inhibitor 2” value (TNIK) was 0.1 °C and the “ΔTm inhibitor 2” value (CDKL1) was 0.4 °C.

In the case of `CC(=O)c1cccc(-c2cnc3ccc(NCC4CC4)nn23)c1` [compound 1, K00135], the “ΔTm inhibitor 1” value (CSNK1G1) is reported as 1.7 °C, the “ΔTm inhibitor 1” value (PAK7) is reported as 0.4 °C and the “ΔTm inhibitor 1” value (PHKG2) is reported as 1.7 °C. For the same compound, the “ΔTm inhibitor 1” value (AAK1) was 6.9 °C, the “ΔTm inhibitor 1” value (PLK4) was 2.6 °C and the “ΔTm inhibitor 1” value (TTK) was 2.7 °C. For the same compound, the “ΔTm inhibitor 1” value (STK39) was 0.8 °C, the “ΔTm inhibitor 1” value (TNIK) was 1.2 °C and the “ΔTm inhibitor 1” value (CDKL1) was 0.2 °C.

In the case of `Nc1nccc(-c2ccc3noc(-c4ccc(Cl)cc4)c3c2)n1` [compound 4, K00972], the “ΔTm inhibitor 4” value (CSNK1G1) is reported as 1.0 °C, the “ΔTm inhibitor 4” value (PAK7) is reported as 0.6 °C and the “ΔTm inhibitor 4” value (PHKG2) is reported as 1.7 °C. The “ΔTm inhibitor 4” value (AAK1) was 3.4 °C, the “ΔTm inhibitor 4” value (PLK4) was 0.4 °C and the “ΔTm inhibitor 4” value (TTK) was 1.7 °C. For the same compound, the “ΔTm inhibitor 4” value (STK39) was 0.0 °C, the “ΔTm inhibitor 4” value (TNIK) was 1.2 °C and the “ΔTm inhibitor 4” value (CDKL1) was 0.8 °C.
